Reference: patent US12275684B2, “Methods for making and using endoxifen” (Atossa Therapeutics, Inc., priority 2017, dated 2025)
Read-outs that look alike come from different tables or passages of the source.

Assay: Placebo controlled, dose escalation pharmacokinetic study of oral (Z)-Endoxifen capsules (serum endoxifen; incl. accumulation ratios and dose linearity)
Format: in vivo, human
Details: for AUC(0-t) / Cmax / Tmax / half-life / AUC(0-inf) / AUC / Vd/F: female, human, serum, po; for AUC(0-inf): read-out: AUC0-inf; for AUC: read-out: AUC to last time point; for Vd/F: read-out: volume of distribution (Vd/F); for time to attain steady state: once daily oral dosing
Excerpt: An objective of the study was to assess the safety and tolerability of oral (Z)-Endoxifen when administered […] orally as a capsule to healthy female volunteers. A secondary objective was to assess the pharmacokinetics of multiple doses of oral (Z)-Endoxifen in the subjects.
Generally, healthy female volunteers aged ≥18 years and ≤65 years were enrolled. 24 participants were enrolled in 3 cohorts and will be administered study drug orally. Three dose levels of orally administered (Z)-Endoxifen were investigated in 3 cohorts. In each cohort participants were randomized to receive an oral (Z)-Endoxifen or placebo in a blinded fashion. Enteric-resistant capsules used in the study were designed as delayed release capsules to resist rupture for at least 30 minutes, but typically, for about 2 hours, under gastric conditions and then open fully in intestinal fluid (DRCaps; Capsugel, a Lonza Company, USA). Enteric-resistant (Swedish Orange size Zero (0); Capsugel, USA) DRCaps capsules manually filled with 1, 2 or 4 mg of (Z)-endoxifen neat in compliance with GMP requirements were used. Placebo capsules contained microcrystalline cellulose an inert common capsule and tablet excipient.
Each cohort enrolled 8 participants, with 6 participants receiving (Z)-Endoxifen 1 mg capsules orally at 1 mg (Cohort 1), 2 mg (Cohort 2) or 4 mg (Cohort 3) doses and 2 participants receiving matching placebo capsules. In Cohort 1 (Dose Level=1 mg) two participants (sentinels) were dosed 24 hours prior to the remaining participants. One sentinel was dosed with (Z)-Endoxifen and the other with placebo. The remaining six participants in Cohort 1 were dosed as no safety concerns were identified in the sentinel participants. The non-sentinel participants in Cohort 1 were admitted to the clinical research facility at least one day later than the sentinels. There were no sentinels in Cohorts 2 and 3.
Participant engagement in this study was for a period of 56 days. These included a 28 day screening period, and a 7 day post treatment period for Pharmacokinetic (PK) sampling. There were two confinement periods, one at the beginning and one at the end of the dosing periods. Participants were confined to the clinical facility on Days-1 through to Day 2 and Days 21 and 22. If participants were to experience any clinically significant adverse events during the study, they would have been required to remain in the clinical facility for further observation at the discretion of the Principal Investigator (PI).
Healthy female volunteers were screened within 28 days prior to commencement of dosing. Participants were admitted to the clinical facility on Day-1 for up to 3 days. The first dose of (Z)-Endoxifen or placebo capsules was administered on Day 1. Following completion of all safety assessments and sampling for PK analyses, participants were discharged from the clinical facility on Day 2. The first dose on Day 1 was followed by a 6-day treatment free period (Days 2-7). Each participant returned to the clinical facility for PK blood draws and safety assessments during the treatment free period on study Days 4 and 6. On Day 8 participants commenced daily administration of (Z)-Endoxifen capsules or placebo capsules for 14 consecutive days (Days 8-21). Participants were supplied with study drug capsules and asked to self administer daily. Participants visited the clinical facility on Days 11, 14 and 17, prior to dose administration, for PK blood draws and safety assessments. On the morning of Day 21 each participant returned to the clinical facility prior to dose administration and were confined to the facility until Day 22 to allow for the collection of PK blood draws and safety assessments. The Day 21 dose was the last administration of study drug. Participants were discharged from the clinical facility on Day 22 and returned for PK blood draws and safety assessments on study Days 24, 26, and 28. […]

[1] = 4 mg, Day 1, dose 4 mg oral, GeoMean, N 6
[2] = 4 mg, Day 1, dose 4 mg oral, Mean, N 6
[3] = 4 mg, Day 1, dose 4 mg oral, Median, N 6

CC/C(=C(\c1ccc(O)cc1)c1ccc(OCCNC)cc1)c1ccccc1 [(Z)-Endoxifen, (Z)-4-(1-(4-(2-(methylamino)ethoxy)phenyl)-2-phenylbut-1-enyl) phenol]
AUC(0-t) (2 mg/day, Day 21, 2 mg/day oral (n = 6), read-out: AUC24 hr, Arithmetic Mean): 911 ng·h/mL | Cmax (2 mg/day, Day 21, 2 mg/day oral (n = 6), read-out: Cmax, Arithmetic Mean): 50 ng/mL | Tmax (2 mg/day, Day 21, 2 mg/day oral (n = 6), read-out: Median Tmax): 4 h | Tmax (2 mg/day, Day 21, 2 mg/day oral (n = 6), read-out: Tmax (Range)): 2 to 6.05 h | half-life (2 mg/day, Day 21, 2 mg/day oral (n = 6), read-out: t1/2, Arithmetic Mean (converted)): 43.4 h | AUC(0-inf) [1]: 1700 ng·h/mL | AUC(0-t) (4 mg, Day 1, dose 4 mg oral, GeoMean, N 6, read-out: AUC24hr): 521 ng·h/mL | AUC [1]: 1420 ng·h/mL | Cmax (4 mg, Day 1, dose 4 mg oral, GeoMean, N 6, read-out: Cmax): 29.1 ng/mL | Tmax (4 mg, Day 1, dose 4 mg oral, GeoMean, N 6, read-out: Tmax): 5.15 h | half-life (4 mg, Day 1, dose 4 mg oral, GeoMean, N 6, read-out: apparent terminal half life (t½) (converted)): 40.7 h | Vd/F [1]: 138 L | AUC(0-inf) [2]: 2020 ng·h/mL | AUC(0-t) (4 mg, Day 1, dose 4 mg oral, Mean, N 6, read-out: AUC24hr): 587 ng·h/mL | AUC [2]: 1650 ng·h/mL | Cmax (4 mg, Day 1, dose 4 mg oral, Mean, N 6, read-out: Cmax): 32.5 ng/mL | Tmax (4 mg, Day 1, dose 4 mg oral, Mean, N 6, read-out: Tmax): 5.56 h | half-life (4 mg, Day 1, dose 4 mg oral, Mean, N 6, read-out: apparent terminal half life (t½) (converted)): 41.6 h | Vd/F [2]: 154 L | AUC(0-inf) [3]: 1760 ng·h/mL | AUC(0-t) (4 mg, Day 1, dose 4 mg oral, Median, N 6, read-out: AUC24hr): 539 ng·h/mL | AUC [3]: 1420 ng·h/mL | Cmax (4 mg, Day 1, dose 4 mg oral, Median, N 6, read-out: Cmax): 29.5 ng/mL | Tmax (4 mg, Day 1, dose 4 mg oral, Median, N 6, read-out: Tmax): 5.08 h | half-life (4 mg, Day 1, dose 4 mg oral, Median, N 6, read-out: apparent terminal half life (t½) (converted)): 39.9 h | Vd/F [3]: 131 L | AUC(0-t) (4 mg, Day 21, dose 4 mg oral once daily, GeoMean, N 6, read-out: AUC24hr): 1740 ng·h/mL | Cmax (4 mg, Day 21, dose 4 mg oral once daily, GeoMean, N 6, read-out: Cmax): 100 ng/mL | Tmax (4 mg, Day 21, dose 4 mg oral once daily, GeoMean, N 6, read-out: Tmax): 4.75 h | half-life (4 mg, Day 21, dose 4 mg oral once daily, GeoMean, N 6, read-out: apparent terminal half life (t½) (converted)): 44.6 h | Vd/F (4 mg, Day 21, dose 4 mg oral once daily, GeoMean, N 6): 148 L | AUC(0-t) (4 mg, Day 21, dose 4 mg oral once daily, Mean, N 6, read-out: AUC24hr): 2040 ng·h/mL | Cmax (4 mg, Day 21, dose 4 mg oral once daily, Mean, N 6, read-out: Cmax): 115 ng/mL | Tmax (4 mg, Day 21, dose 4 mg oral once daily, Mean, N 6, read-out: Tmax): 5.33 h | half-life (4 mg, Day 21, dose 4 mg oral once daily, Mean, N 6, read-out: apparent terminal half life (t½) (converted)): 45.1 h | Vd/F (4 mg, Day 21, dose 4 mg oral once daily, Mean, N 6): 189 L | AUC(0-t) (4 mg, Day 21, dose 4 mg oral once daily, Median, N 6, read-out: AUC24hr): 2470 ng·h/mL | Cmax (4 mg, Day 21, dose 4 mg oral once daily, Median, N 6, read-out: Cmax): 131 ng/mL | Tmax (4 mg, Day 21, dose 4 mg oral once daily, Median, N 6, read-out: Tmax): 5 h | half-life (4 mg, Day 21, dose 4 mg oral once daily, Median, N 6, read-out: apparent terminal half life (t½) (converted)): 45.3 h | Vd/F (4 mg, Day 21, dose 4 mg oral once daily, Median, N 6): 106 L | AUC(0-t) (4 mg/day, Day 1, 4 mg/day oral (n = 6), read-out: AUC24 hr, Arithmetic Mean): 587 ng·h/mL | Cmax (4 mg/day, Day 1, 4 mg/day oral (n = 6), read-out: Cmax, Arithmetic Mean): 32.5 ng/mL | Tmax (4 mg/day, Day 1, 4 mg/day oral (n = 6), read-out: Median Tmax): 5.08 h | Tmax (4 mg/day, Day 1, 4 mg/day oral (n = 6), read-out: Tmax (Range)): 3 to 6 h | half-life (4 mg/day, Day 1, 4 mg/day oral (n = 6), read-out: t1/2, Arithmetic Mean (converted)): 41.6 h | AUC(0-t) (4 mg/day, Day 21, 4 mg/day oral (n = 6), read-out: AUC24 hr, Arithmetic Mean): 2040 ng·h/mL | Cmax (4 mg/day, Day 21, 4 mg/day oral (n = 6), read-out: Cmax, Arithmetic Mean): 115 ng/mL | Tmax (4 mg/day, Day 21, 4 mg/day oral (n = 6), read-out: Median Tmax): 5 h | Tmax (4 mg/day, Day 21, 4 mg/day oral (n = 6), read-out: Tmax (Range)): 2 to 10 h | half-life (4 mg/day, Day 21, 4 mg/day oral (n = 6), read-out: t1/2, Arithmetic Mean (converted)): 45.1 h | time to attain steady state: ≤ 7 days | time to attain steady state (listed as (Z)-endoxifen): approximately 7 days
